Experimental data taken from patent US20140303092A1 (CHIMERIX, INC., priority 2011, published 2014).
Several values for one entry are separate records, joined by “and”; a condition that tells them apart may be missing. Equal entries are not always repeated.

Test system: CMV
Test: Study HDP-CDV-201: prevention or control of CMV infection in R+ HSCT recipients (efficacy)
Assay type: in vivo, human (adult allogeneic HSCT recipients)
Settings: for Difference (HDP-CDV minus placebo) in rate of CMV DNAemia ≧1,000 copies/mL / Rate of CMV DNAemia ≧1,000 copies/mL during the treatment period: CMV modified strata: positive; for Discontinuation: Emergence of CMV disease / Discontinuation: Initiation of alternate CMV therapy: active treatment period
Experimental: The clinical study of the current invention (HDP-CDV-201) was a 9-11 week randomized, placebo-controlled, double-blind, dose-escalation study (40 mg weekly [QW], 100 mg QW, 200 mg QW, 200 mg twice-weekly [BIW], and 100 mg BIW) of HDP-CDV for the prevention of CMV infection post-HCT. Treatment was initiated at the time of engraftment and continued until Week 13 post-HCT. HDP-CDV, at various doses, was active and well tolerated in the prevention CMV infection or disease.
Clinical Studies of HDP-CDV were performed and described in detail in the following Examples. For example, HDP-CDV-201 is a placebo-controlled, dose-escalating trial in HSCT CMV (R+) recipients, evaluating the ability of HDP-CDV to prevent or control CMV infection was carried out. Five cohorts were established in which participants or subjects received either placebo or the HDP-CDV orally, in doses ranging from 40 mg weekly (QW) to 200 mg twice weekly (BIW). Subjects who were post-HSCT were enrolled at the time of engraftment and randomized to HDP-CDV or placebo (3 to 1 ratio) and received blinded therapy until approximately 100 day post-transplantation. HDP-CDV doses were 40 mg QW, 100 mg QW, 200 mg QW, 200 mg BIW and 100 mg BIW. Escalation to the next dose was decided by the data monitoring committee after review of the safety data from the previous Cohort. Subjects who developed CMV disease or CMV infection requiring pre-emptive therapy with local standard of care were discontinued from blinded therapy and followed for 4 weeks. Subjects who completed treatment with blinded therapy were followed for 8 weeks post-therapy.
The primary endpoint was defined as the incidence of CMV disease at any time during treatment or CMV DNAemia≧200 copies/mL at the end of treatment. All subjects who received at least one dose of drug/placebo and had at least one efficacy evaluation post baseline were included in the primary analysis, regardless of their CMV DNAemia status (negative or positive) at baseline (mITT population). Results for the pooled HDP-CDV Cohorts and for each Cohort separately were analyzed versus that for pooled placebo.
The primary efficacy measure for this study was treatment failure, defined as the occurrence of CMV infection, defined as CMV DNAemia>200 copies/mL at the End of Treatment or diagnosis of CMV disease at any time during the treatment period. For the analysis, the following definitions apply:
For subjects who completed the treatment phase of the study, the End of Treatment was defined as the latest assessment from date of the last dose of study drug and up to 7 days for QW dosing, or the date of the last dose of study drug and up to 4 days for BIW dosing. For subjects who discontinued during the treatment phase of the study, the End of Treatment was defined as the date of the last dose of study drug.
The time to event was defined as the period between FDD and date of first occurrence of the event of interest (inclusive). The events included onset of CMV DNAemia, onset of CMV disease, and discontinuation because of excluded anti-CMV medications. Time to event/onset was derived as (the event/onset date—FDD)+1.
As detailed in the Statistical Analysis Plan, a modified CMV stratum was defined prior to conducting the statistical analysis based upon polymerase chain reaction (PCR) results from the central laboratory. If any positive CMV DNA value in plasma was collected before the first dose of study drug (including Screening, Pre-dose, (combined Screening/Pre-dose), CMV for stratification, and FDD), then the subject was placed into the modified CMV positive (≧100 copies/mL) stratum, otherwise the subject was in the modified CMV negative stratum. […]

[1] = 40 mg QW, CMV modified strata: negative
[2] = 40 mg QW, modified CMV negative stratum
[3] = 40 mg QW, treatment period, CMV DNA negative at baseline
[4] = 40 mg QW, whole study period, CMV DNA negative at baseline
[5] = 100 mg BIW, CMV modified strata: negative

CCCCCCCCCCCCCCCCOCCCOP(=O)(O)COC(CO)Cn1ccc(N)nc1=O (stereo not drawn) [HDP-CDV]
anti-CMV activity (in words) (40 mg QW): inactive | Difference (HDP-CDV minus placebo) in infection rate [1]: 9.1% | Difference (HDP-CDV minus placebo) in rate of CMV DNAemia ≧1,000 copies/ml [1]: −9.7% | Rate of CMV DNAemia ≧1,000 copies/ml during the treatment period [1]: 22.2% | Rate of CMV Disease or End of Treatment CMV Infection [1]: 38.9% | Difference (HDP-CDV minus placebo) in rate of CMV DNAemia ≧1,000 copies/mL (40 mg QW): 2.4% | Rate of CMV DNAemia ≧1,000 copies/mL during the treatment period (40 mg QW): 85.7% | Rate of CMV Disease or End of Treatment CMV Infection (40 mg QW, aGVHD randomization strata: negative): 52.2% | Difference (HDP-CDV minus placebo) in infection rate (40 mg QW, aGVHD strata: negative): 20.1% | Discontinuation: Emergence of CMV disease (40 mg QW): 3 Subject n (%) and 3 (12.0%) Subject n (%) | Discontinuation: Initiation of alternate CMV therapy (40 mg QW): 8 (32.0%) Subject n (%) | Difference (HDP-CDV minus placebo) in rate of CMV DNAemia ≧1000 copies/mL (40 mg QW, mITT): −2.4% | Difference (HDP-CDV minus placebo) in rate of CMV disease or end of treatment CMV infection (40 mg QW, mITT): 14.7% | Subjects Receiving Antiviral Therapy and/or had CMV disease (40 mg QW, mITT): 11 (44.0%) subjects (%) | Subjects without a CMV event (40 mg QW, mITT): 14 (56.0%) subjects (%) | Time to Antiviral Therapy, Median (40 mg QW, mITT): 29.0 days | Rate of CMV Disease or End of Treatment CMV Infection (≧200 copies/ml) (40 mg QW, mITT, missing=infection): 52% | Rate of CMV DNAemia ≧1000 copies/mL during the treatment period (40 mg QW, mITT, post hoc): 40.0% | Time to Antiviral Therapy, Mean (40 mg QW, mITT, censored values not included): 27.1 days | Subjects Who Had CMV-related Event (CMV disease, CMV DNAemia ≧1,000 c/mL or initiation of anti-CMV treatment) [2]: 5 (27.8%) subjects (%) | Subjects without a CMV-related event [2]: 13 (72.2%) subjects (%) | Developed CMV DNAemia (≧100 copies/mL) during the treatment period (40 mg QW, plasma CMV DNA negative at baseline, mITT): 10 (52.6%) N(%) | Median Survival Time to CMV DNAemia (Kaplan-Meier) [3]: 51.0 days | Time to CMV DNAemia (≧100 copies/mL), Median [3]: 14.5 days | Time to CMV DNAemia (≧100 copies/mL), Mean (40 mg QW, treatment period, CMV DNA negative at baseline, censored values not included): 17.8 days | Median Survival Time to CMV DNAemia (Kaplan-Meier) (40 mg QW, whole study period): 51.0 days | Number of Subjects who had CMV DNAemia (≧100 copies/mL) by the end of study [4]: 11 | Time to CMV DNAemia (≧100 copies/mL), Mean [4]: 24.5 days | Time to CMV DNAemia (≧100 copies/mL), Median [4]: 15.0 days | % CMV Event Rate, primary: CMV DNAemia >200 copies/mL at end of treatment OR CMV disease during treatment (100 mg BIW (N = 41), CMV modified strata: negative): 2 (4.9%) subjects (%) | % CMV Event Rate, primary: CMV DNAemia >200 copies/mL at end of treatment OR CMV disease during treatment (100 mg BIW (N = 46), aGVHD strata: negative): 4 (8.7%) subjects (%) | % CMV Event Rate, primary: CMV DNAemia >200 copies/mL at end of treatment OR CMV disease during treatment (100 mg BIW (N = 50), mITT): 5 (10.0)% | CMV events (disease at any time or >200 copies at end of treatment) (100 mg BIW, CMV modified positive stratum (3 of 9)): 33% | Difference (HDP-CDV minus placebo) in infection rate [5]: −24.9% | Difference (HDP-CDV minus placebo) in rate of CMV DNAemia ≧1,000 copies/ml [5]: −31.9% | Rate of CMV DNAemia ≧1,000 copies/ml during the treatment period [5]: 0% | Rate of CMV Disease or End of Treatment CMV Infection [5]: 4.9% and 5% | Difference (HDP-CDV minus placebo) in rate of CMV DNAemia ≧1,000 copies/mL (100 mg BIW): −38.9% | Rate of CMV DNAemia ≧1,000 copies/mL during the treatment period (100 mg BIW): 44.4% | Rate of CMV Disease or End of Treatment CMV Infection (100 mg BIW, aGVHD randomization strata: negative): 9% and 8.7% | Difference (HDP-CDV minus placebo) in infection rate (100 mg BIW, aGVHD strata: negative): −23.4% | Discontinuation: Emergence of CMV disease (100 mg BIW): 1 Subject n (%) and 1 (2.0%) Subject n (%) | Discontinuation: Initiation of alternate CMV therapy (100 mg BIW): 6 (12.0%) Subject n (%) | Difference (HDP-CDV minus placebo) in rate of CMV DNAemia ≧1000 copies/mL (100 mg BIW, mITT): −34.4% | Difference (HDP-CDV minus placebo) in rate of CMV disease or end of treatment CMV infection (100 mg BIW, mITT): −27.3%
